US20230293517A1, “ANTAGONIST COMPOUNDS” (AdoRx Therapeutics Limited, priority 2020, published 2023)
Where a name gives a salt, the structure may show the parent alone. Read-outs that look alike come from different tables or passages of the source.

Key:
[1] = target: human Adenosine A1 receptor (Homo sapiens (Human), UniProt P30542); test: Adenosine receptor TR-FRET binding assay (A1); conditions: inhibition of binding of 100 nM CA200645, CHO cell membranes
Protocol: (§1) Biological Example 1—Adenosine Receptor Time-Resolved Fluorescence Resonance Energy Transfer (TRFRET) Binding Assay
(§2) All FRET binding experiments were conducted at room temperature in white 384-well plates, in assay binding buffer containing 1×LabMed (Cisbio, France), 100 μg/mL saponin, 1% DMSO and 0.02% pluronic acid. Binding of the fluorescently labelled Adenosine receptor antagonist XAC (CA200645, FRET acceptor) to terbium-labelled A1, A2a, A2b and A3 adenosine receptors (FRET donors) was detected by time-resolved FRET due to the close proximity of the donor and acceptor in a binding event. To investigate the ability of unlabelled test compounds to bind to Adenosine A1, A2a, A2b and A3 receptors, dose response curves were constructed that determined the ability of a range of concentrations to inhibit the binding of 30 nM CA200645 to the A2b receptor and 100 nM CA200645 to the A1, A2a, and A3 receptor.
(§3) Serial dilution (1:3 dilutions) of test compounds in neat DMSO and transfer of a 400 nL sample of test compound into the assay plate was carried out using the Mosquito (TTP Labtech, UK). The compound samples were incubated for 2 hours at room temperature with a fixed concentration of CA200645 defined for each receptor (see above) and CHO cell membranes containing the human Adenosine A1 (0.5 μg/well), A2a (0.3 μg/well), A2b (1 μg/well) or A3 (1 μg/well) receptor in 40 μL of assay buffer. Total and non-specific binding of CA200645 was determined in the absence and presence of 10 μM XAC, respectively. Following 2 hours incubation, the level of CA200645 binding was detected on a Pherastar FSX (BMG Labtech, Germany) using standard TR-FRET settings. The terbium donor was excited with three laser flashes at a wavelength of 337 nm, and donor and acceptor emission was detected at 620 nm and 665 nm wavelengths, respectively. FRET ratios were obtained by multiplying the acceptor/donor ratio value by 10,000. Specific binding was determined by subtracting the non-specific binding FRET ratio from the total binding FRET ratio. Compound IC50 curves were analysed using GraphPad Prism 7.0 (GraphPad, USA) and Ki affinity values were determined from the obtained IC50 values using the method of Cheng and Prusoff.

[2] = target: human Adenosine A2a receptor (Homo sapiens (Human), UniProt P29274); test: Adenosine receptor TR-FRET binding assay (A2a); conditions: inhibition of binding of 100 nM CA200645, CHO cell membranes
Sequence of human Adenosine A2a receptor (P29274 whole entry): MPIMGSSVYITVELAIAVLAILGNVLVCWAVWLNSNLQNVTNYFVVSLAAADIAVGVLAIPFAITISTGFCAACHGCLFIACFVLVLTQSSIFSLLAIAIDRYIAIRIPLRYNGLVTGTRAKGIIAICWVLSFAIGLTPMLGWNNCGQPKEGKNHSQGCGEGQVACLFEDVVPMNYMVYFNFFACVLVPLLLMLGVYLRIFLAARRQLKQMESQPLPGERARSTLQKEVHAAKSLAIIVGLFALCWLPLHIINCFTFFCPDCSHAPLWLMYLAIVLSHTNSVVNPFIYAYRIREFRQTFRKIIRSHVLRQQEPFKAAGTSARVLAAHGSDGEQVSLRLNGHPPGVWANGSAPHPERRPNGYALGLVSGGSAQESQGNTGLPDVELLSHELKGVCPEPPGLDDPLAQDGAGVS
Protocol: as §1, §2, §3

[3] = target: human Adenosine A2b receptor (Homo sapiens (Human), UniProt P29275); test: Adenosine receptor TR-FRET binding assay (A2b)
Sequence of human Adenosine A2b receptor (P29275 whole entry): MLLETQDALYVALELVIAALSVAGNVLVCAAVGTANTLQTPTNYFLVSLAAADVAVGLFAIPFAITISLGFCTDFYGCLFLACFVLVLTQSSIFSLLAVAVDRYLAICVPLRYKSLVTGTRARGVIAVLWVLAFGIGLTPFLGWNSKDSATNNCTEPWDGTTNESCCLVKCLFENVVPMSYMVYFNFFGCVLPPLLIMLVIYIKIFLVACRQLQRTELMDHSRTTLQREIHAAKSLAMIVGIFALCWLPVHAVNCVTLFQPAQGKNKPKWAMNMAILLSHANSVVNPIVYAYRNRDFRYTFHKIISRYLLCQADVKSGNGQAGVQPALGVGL
Protocol: as §1, §2, §3

[4] = target: human Adenosine A3 receptor (Homo sapiens (Human), UniProt P0DMS8); test: Adenosine receptor TR-FRET binding assay (A3); conditions: inhibition of binding of 100 nM CA200645, CHO cell membranes
Sequence of human Adenosine A3 receptor (P0DMS8 whole entry): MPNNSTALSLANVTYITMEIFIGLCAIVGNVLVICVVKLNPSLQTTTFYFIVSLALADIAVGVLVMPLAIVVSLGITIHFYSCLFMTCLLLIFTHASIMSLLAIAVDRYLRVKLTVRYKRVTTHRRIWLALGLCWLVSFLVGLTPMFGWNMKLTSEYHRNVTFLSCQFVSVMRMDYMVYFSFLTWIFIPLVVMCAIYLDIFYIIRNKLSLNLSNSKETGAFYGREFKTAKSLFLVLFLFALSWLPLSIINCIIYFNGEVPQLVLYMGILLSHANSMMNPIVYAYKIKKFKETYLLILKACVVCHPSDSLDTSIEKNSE
Protocol: as §1, §2, §3

[5] = TR-FRET, inhibition of binding of 30 nM CA200645, CHO cell membranes

Sequence of human Adenosine A1 receptor (P30542 whole entry): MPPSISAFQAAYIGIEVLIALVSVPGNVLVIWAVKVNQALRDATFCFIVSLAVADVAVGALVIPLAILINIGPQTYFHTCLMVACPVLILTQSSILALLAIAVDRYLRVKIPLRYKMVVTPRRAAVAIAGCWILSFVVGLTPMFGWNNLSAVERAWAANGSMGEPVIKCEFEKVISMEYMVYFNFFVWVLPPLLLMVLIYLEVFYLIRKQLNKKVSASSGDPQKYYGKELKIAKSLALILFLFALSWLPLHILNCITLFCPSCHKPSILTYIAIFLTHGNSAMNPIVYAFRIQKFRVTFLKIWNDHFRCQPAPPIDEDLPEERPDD

| SMILES | Ki [1] [nM] | Ki [2] [nM] | Ki [3] [nM] | Ki [4] [nM] | Ki [3, 5] [nM] |
| --- | --- | --- | --- | --- | --- |
| Cc1cc(-c2sc(NC(=O)N3C[C@H]4OCCN(C)[C@H]4C3)nc2-c2cccc(C#N)c2)cc(C(F)F)n1 (racemic) [Example 6.106, rac-(4aS,7aR)-N-[4-(3-Cyanophenyl)-5-[2-(difluoromethyl)-6-methyl-4-pyridyl]thiazol-2-yl]-4-methyl-2,3,4a,5,7,7a-hexahydropyrrolo[3,4-b][1,4]oxazine-6-carboxamide] | 139 | 1.07 | 4.5 | 195 | – |
| Cc1cc(-c2sc(NC(=O)N3C[C@@H]4OCCN(C)[C@H]4C3)nc2-c2cccc(C#N)c2)cc(C(F)F)n1 (racemic) [Example 6.109, rac-(4aS,7aS)-N-[4-(3-Cyanophenyl)-5-[2-(difluoromethyl)-6-methyl-4-pyridyl]thiazol-2-yl]-4-methyl-2,3,4a,5,7,7a-hexahydropyrrolo[3,4-b][1,4]oxazine-6-carboxamide] | 471 | 10.8 | 45.5 | 298 | – |
| Cc1cc(-c2sc(NC(=O)N3CCOCC3)nc2-c2cccc(C#N)c2)cc(Cl)n1 [Example 1, N-[5-(2-Chloro-6-methyl-4-pyridyl)-4-(3-cyanophenyl)thiazol-2-yl]morpholine-4-carboxamide] | 9 | 0.42 | – | 305 | 1.1 |
| Cc1cc(-c2sc(NC(=O)N3CCC[C@@H]3C(C)(C)O)nc2-c2cccc(C#N)c2)cc(Cl)n1 [Example 3, (2R)—N-[5-(2-Chloro-6-methyl-4-pyridyl)-4-(3-cyanophenyl)thiazol-2-yl]-2-(1-hydroxy-1-methyl-ethyl)pyrrolidine-1-carboxamide] | 1000 | 58.2 | – | 1980 | 50.6 |
| Cc1cc(-c2sc(NC(=O)N3CCCC3)nc2-c2cccc(C#N)c2)cc(Cl)n1 [Example 3.2] | 12 | 0.4 | – | 1040 | 0.7 |
| Cc1cc(-c2sc(NC(=O)N3CCOCC3C(C)(C)O)nc2-c2cccc(C#N)c2)cc(Cl)n1 (centres unmarked) [Example 3.4] | – | 14.3 | – | 2050 | 14.3 |
| Cc1cc(-c2sc(NC(=O)N3CCN[C@H](C(=O)O)C3)nc2-c2cccc(C#N)c2)cc(Cl)n1 [Example 3.5] | 434 | 11.6 | – | 928 | 11.4 |
| Cc1cc(-c2sc(NC(=O)N3CCN[C@@H](C(C)(C)O)C3)nc2-c2cccc(C#N)c2)cc(Cl)n1 [Example 3.10] | 135 | 8.17 | – | 144 | 12.2 |
| COCC1(C#N)CCN(C(=O)Nc2nc(-c3cccc(C#N)c3)c(-c3cc(C)nc(C)c3)s2)CC1 [Example 4.6, 4-Cyano-N-[4-(3-cyanophenyl)-5-(2,6-dimethyl-4-pyridyl)thiazol-2-yl]-4-(methoxymethyl)piperidine-1-carboxamide] | 41 | 0.18 | – | 170 | 1.2 |
| Cc1cc(-c2sc(NC(=O)N3CCO[C@@H](CO)C3)nc2-c2cccc(C#N)c2)cc(C)n1 [Example 4.16, (2R)-N-[4-(3-Cyanophenyl)-5-(2,6-dimethyl-4-pyridyl)thiazol-2-yl]-2-(hydroxymethyl)morpholine-4-carboxamide] | 41 | 0.9 | – | 265 | 2.2 |
| Cc1cc(-c2sc(NC(=O)N3C[C@@H](C)N[C@@H](C)C3)nc2-c2cccc(C#N)c2)cc(C)n1 [Example 13, (3S,5R)—N-[4-(3-Cyanophenyl)-5-(2,6-dimethyl-4-pyridyl)thiazol-2-yl]-3,5-dimethyl-piperazine-1-carboxamide] | 373 | 24.3 | – | – | 196 |
| Cc1cc(-c2sc(NC(=O)N3CC4(COC4)C3)nc2-c2cccc(C#N)c2)cc(C)[n+]1[O-] [Example 17, N-[4-(3-Cyanophenyl)-5-(2,6-dimethyl-1-oxido-pyridin-1-ium-4-yl)thiazol-2-yl]-2-oxa-6-azaspiro[3.3]heptane-6-carboxamide] | 12 | 1.29 | – | – | 10 |

The remaining lines, values ahead:

| Ki [1] [nM] | Ki [2] [nM] | Ki [3] [nM] | Ki [4] [nM] | Ki [3, 5] [nM] | SMILES |
| --- | --- | --- | --- | --- | --- |
| 41 | 2.67 | 8.6 | 112 | – | Cc1cc(-c2sc(NC(=O)N3C[C@@H]4NCCO[C@H]4C3)nc2-c2cccc(C#N)c2)cc(C(F)F)n1 (racemic) [Example 14.1, rac-(4aS,7aS)—N-[4-(3-Cyanophenyl)-5-[2-(difluoromethyl)-6-methyl-4-pyridyl]thiazol-2-yl]-3,4,4a,5,7,7a-hexahydro-2H-pyrrolo[3,4-b][1,4]oxazine-6-carboxamide 2,2,2-trifluoroacetic acid salt] |
| 183 | 2.09 | 8.3 | 132 | – | Cc1cc(-c2sc(NC(=O)N3C[C@@H]4NCCO[C@@H]4C3)nc2-c2cccc(C#N)c2)cc(C(F)F)n1 (racemic) [Example 14.2, rac-(4aS,7aR)—N-[4-(3-Cyanophenyl)-5-[2-(difluoromethyl)-6-methyl-4-pyridyl]thiazol-2-yl]-3,4,4a,5,7,7a-hexahydro-2H-pyrrolo[3,4-b][1,4]oxazine-6-carboxamide 2,2,2-trifluoroacetic acid salt] |
| 122 | 29.4 | – | – | 90 | Cc1cc(-c2sc(NC(=O)N3CCNCC34CCC4)nc2-c2cccc(C#N)c2)cc(C)n1 [Example 7.10, N-[4-(3-Cyanophenyl)-5-(2,6-dimethyl-4-pyridyl)thiazol-2-yl]-5,8-diazaspiro[3.5]nonane-5-carboxamide] |
| 164 | 0.64 | – | – | 1.9 | Cc1cc(-c2sc(NC(=O)N3CC4(CNCCO4)C3)nc2-c2cccc(C#N)c2)cc(C)n1 [Example 13.1, N-[4-(3-Cyanophenyl)-5-(2,6-dimethyl-4-pyridyl)thiazol-2-yl]-5-oxa-2,8-diazaspiro[3.5]nonane-2-carboxamide] |
| 27 | 1.9 | – | – | 4.4 | Cc1cc(-c2sc(NC(=O)N3CCNC4(CC4)C3)nc2-c2cccc(C#N)c2)cc(C)n1 [Example 13.2, N-[4-(3-Cyanophenyl)-5-(2,6-dimethyl-4-pyridyl)thiazol-2-yl]-4,7-diazaspiro[2.5]octane-7-carboxamide] |
| 322 | 11.4 | – | – | 77 | Cc1cc(-c2sc(NC(=O)N3C[C@H](C)N[C@@H](C)C3)nc2-c2cccc(C#N)c2)cc(C)n1 [Example 13.3, (3S,5S)-N-[4-(3-Cyanophenyl)-5-(2,6-dimethyl-4-pyridyl)thiazol-2-yl]-3,5-dimethyl-piperazine-1-carboxamide] |
| 13 | 0.18 | – | – | 4.2 | Cc1cc(-c2sc(NC(=O)N3CCN[C@H](C#N)C3)nc2-c2cccc(C#N)c2)cc(C)n1 [Example 13.14, (3S)-3-Cyano-N-[4-(3-cyanophenyl)-5-(2,6-dimethyl-4-pyridyl)thiazol-2-yl]piperazine-1-carboxamide] |
| 41 | 0.33 | – | – | 5.1 | Cc1cc(-c2sc(NC(=O)N3CCN[C@@H](C#N)C3)nc2-c2cccc(C#N)c2)cc(C)n1 [Example 13.15, (3R)-3-Cyano-N-[4-(3-cyanophenyl)-5-(2,6-dimethyl-4-pyridyl)thiazol-2-yl]piperazine-1-carboxamide] |
| 58 | 5.79 | – | – | 37.1 | Cc1cc(-c2sc(NC(=O)N3CCNCC3C3CC3)nc2-c2cccc(C#N)c2)cc(C)n1 (centres unmarked) [Example 14.4, N-[4-(3-Cyanophenyl)-5-(2,6-dimethyl-4-pyridyl)thiazol-2-yl]-2-cyclopropyl-piperazine-1-carboxamide] |
| 61 | 0.43 | – | – | 2.5 | Cc1cc(-c2sc(NC(=O)N3CCNCC3CC3CC3)nc2-c2cccc(C#N)c2)cc(C)n1 (centres unmarked) [Example 14.5, N-[4-(3-Cyanophenyl)-5-(2,6-dimethyl-4-pyridyl)thiazol-2-yl]-2-(cyclopropylmethyl)piperazine-1-carboxamide] |
| 185 | 15.6 | – | – | 33 | Cc1cc(-c2sc(NC(=O)N3CCNC(C)(C)C3)nc2-c2cccc(C#N)c2)cc(C)n1 [Example 14.6, N-[4-(3-Cyanophenyl)-5-(2,6-dimethyl-4-pyridyl)thiazol-2-yl]-3,3-dimethyl-piperazine-1-carboxamide] |
